Entries after “also recorded” stand apart in the source; their conditions may differ.
How the values were obtained:
Format in all cases: in vivo
hSOD1^G93A mice [1] = test: Hind limb grip strength test in hSOD1^G93A mice on triheptanoin diet
Protocol: (§1) All experiments were approved by the University of Queensland's Animal Ethics Committee and followed the guidelines of the Queensland Animal Care and Protection Act 2001. All efforts were made to minimize the suffering and the number of animals used. Wild-type and hSOD1^G93A mice (B6.Cg-Tg(SOD1*G93A)1 Gur/J, stock no. 004435, Jackson laboratory, Maine, USA), were generated by mating hSOD1^G93A males with C57B/L6 wild-type females (University of Queensland). Mice were housed in a 12 hour light, 12 hour dark cycle, and had free access to food and water. Experimenters were blinded to animal genotype (until the mice started expressing the ALS phenotype) and dietary interventions.
(§2) Immediately after weaning, mice were placed on either a standard diet (SF11-027, Specialty Feeds, WA, AUS) or a matched diet (SF11-028, Specialty Feeds) in which 35% of the calories were from triheptanoin oil (Sasol, Germany). All diets were matched in protein, mineral, antioxidant and vitamin content relative to their caloric densities (Thomas et al., 2012). Triheptanoin replaced sucrose, some of the complex carbohydrates and long chain fats in the diet.
Animals underwent behavioral testing approximately 3-4 hours into the light cycle. All behavioral testing was conducted in an environment with minimal stimuli so as to minimize any possible effects caused by changes in external stimuli. Animals were weighed before every test session. Mice were observed, and disease progression tracked and graded according to a neurological score sheet to ensure that any non-ALS related deaths were excluded from the study. The neurological score was adapted from criteria developed at the ALS therapy development institute (Gill et al., 2009). In accordance with ethical requirements, hSOD1^G93A mice that became too weak to reach the food hoppers were provided with wet chow on the floor of the cages. The endpoint of the study was defined as the mouse being unable to right itself within 15 seconds after being placed on its back. Upon reaching end-stage or 25 weeks of age, transgenic mice and their respective wild-type littermates were euthanized with an overdose of pentobarbital (120 mg/kg, i.p., Provet, Australia). Tissues, including the m. gastrocnemius and tail, were collected for subsequent analysis. […]
(§3) Hind limb grip strength tests were conducted twice a week using a T-bar force transducer (Ugo Basile, Italy). […] The reading on the force transducer was taken only if both hind limbs released the bar at the same time. The average of 10 trials per mouse was recorded each training session. To compare time points of grip strength loss, the time point where a loss of more than 30% of the combined mean grip strength of week 9 to 13 was recorded, if the subsequent 3 measurements were ≦70% of the original average strength.

wild-type mice = test: Hind limb grip strength test in wild-type mice on triheptanoin diet; conditions: triheptanoin n=15 vs control n=12
Protocol: as §1, with “interventions. […]” for “interventions.”
as §3

hSOD1^G93A mice [2] = test: Rotarod test, onset of balance loss
From the text: as §2
(§4) Animals underwent behavioral testing approximately 3-4 hours into the light cycle. All behavioral testing was conducted in an environment with minimal stimuli so as to minimize any possible effects caused by changes in external stimuli. Animals were weighed before every test session. Mice were observed, and disease progression tracked and graded according to a neurological score sheet to ensure that any non-ALS related deaths were excluded from the study. The neurological score was adapted from criteria developed at the ALS therapy development institute (Gill et al., 2009). In accordance with ethical requirements, hSOD1^G93A mice that became too weak to reach the food hoppers were provided with wet chow on the floor of the cages. […]
The rotarod tests were conducted with 10 repeats once a week using a rotarod designed for mice (Ugo Basile, Italy). […] The time at which the animal fell off was recorded. […]

hSOD1^G93A mice [3] = test: Body weight and onset of body weight loss in hSOD1^G93A mice
From the text: as §2
as §4, with “cages. The endpoint of the study was defined as the mouse being unable to right itself within 15 seconds after being placed on its back.” for “cages.”

hSOD1^G93A mice [4] = test: Survival, days taken to reach end-stage
From the text: as §2
as §4, with “cages. The endpoint of the study was defined as the mouse being unable to right itself within 15 seconds after being placed on its back.” for “cages.”

hSOD1^G93A mice [5] = test: Motor neuron counting (stereological, L2 to L5); conditions: hSOD1^G93A mice at 70 days
Protocol: Mice were fed with control or triheptanoin diet from 35 days until 70 days of age, when mice were anesthetized with pentobarbital (100 mg/kg i.p.), perfused with 0.9% saline followed by 4% paraformaldehyde. Spinal cords were removed and further fixed in 4% paraformaldehyde and subsequently embedded in OCT compound and serial sections of 16 μm were cut from lumbar vertebrae. Sections were washed in cold PBS and stained with 0.1% thionin in acetate buffer (pH3.4). The motor neurons were counted using stereological method as previously described (Banks et al., 2001; 2003; Forgarty et al., 2013). Briefly, motor neurons in the lateral motor column (LMC) from one side of the spinal cord were counted and only neurons that are large in size with darkly stained cytoplasm, pale nucleus and darkly stained nucleoli were counted (Clarke and Oppenheim, 1995). Every 10th section from lumbar 2 to lumbar 5 regions was counted to get the total motor neuron count which was then divided by the number of sections counted and multiplied by the total number of sections containing the LMC.

[6] = test system: Pdha1, Ogdh, Sdha and Mut mRNA in gastrocnemius muscle of hSOD1^G93A mice; test: Quantitative real time PCR of metabolic genes in gastrocnemius muscle; conditions: 10 week old hSOD1^G93A mice, triheptanoin feeding
From the text: After euthanasia, the gastrocnemius muscle was quickly removed and frozen in liquid nitrogen. To extract RNA, muscle samples were pulverized in liquid nitrogen with a cold mortar and pestle, dissolved with TRI reagent (Life Technologies, CA, USA) and extracted according to the manufacturer's instructions. Contaminating DNA was removed by DNase I treatment and cDNA was synthesized using the Tetro cDNA synthesis kit (Bioline, London, UK) according to the manufacturer's instructions.
Expression of several metabolic genes was assayed (Gapdh, Pdha1, Ogdh, Sdha, Pcx, Gpt1, Gpt2, Pcca, Pccb and Mut) by quantitative real time PCR. All primers pairs (Table 1) were evaluated for efficiency using a 4 fold serial dilution series of muscle cDNA. The derived slope of each primer pair was used to calculate the efficiency by applying the formula, […]. Reactions consisted with diluted cDNA, 5 μl of SYBR Green Mastermix and 8 μM of forward and reverse primers each, and were amplified after an initial hot start. Conditions for cycling and the melt curve were identical to those described for quantitative genotyping. Samples without reverse transcriptase treatment were assayed to ensure that samples were free from DNA contamination. The fold expression (ΔCT) of the gene of interest (goi) relative to the geometric mean of housekeeping genes (Tbp, B2m and Hmbs) were calculated with a formula adapted from (Vandesompele et al., 2002) taking into consideration the individual efficiencies (E) of each primer pair.

CCCCCCC(=O)OCC(COC(=O)CCCCCC)OC(=O)CCCCCC [triheptanoin, 1,3-di(heptanoyloxy)propan-2-yl heptanoate]
hind limb grip strength (upper limit over time) (hSOD1^G93A mice [1]; hSOD1^G93A mice on both diets): ≤ 400 mN | onset of hind limb grip strength loss delayed by (hSOD1^G93A mice [1]; high copy number (19-24) hSOD1^G93A mice, diet with 35% of calories from triheptanoin vs control diet (n=8 vs n=5)): 2.8 weeks | hind limb grip strength at 18 and 19.5 weeks of age vs control diet (hSOD1^G93A mice [1]; high copy number hSOD1^G93A mice, Bonferroni post-hoc p<0.05): higher hind limb grip strength; also recorded: significantly higher grip strength | area under the curve for grip strength over time, increase relative to control diet (hSOD1^G93A mice [1]; high copy number hSOD1^G93A mice, triheptanoin diet vs control diet, p=0.024): 38% | difference in mean hind limb grip strength vs control diet (wild-type mice): no observable difference | time of onset of loss of balance delayed by (hSOD1^G93A mice [2]; hSOD1^G93A mice, triheptanoin vs control diet, p=0.0016): 1.6 weeks | onset of balance loss on the rota-rod delayed by (hSOD1^G93A mice [2]; triheptanoin fed vs control fed SOD1^G93A mice, p=0.0016 (FIG. 3F legend)): 13 days | onset of body weight loss delayed by (hSOD1^G93A mice [3]; hSOD1^G93A mice, triheptanoin feeding vs control, p=0.007): 1.6 weeks | onset of body weight loss delayed by (hSOD1^G93A mice [3]; triheptanoin fed (n=8) vs control fed (n=5) SOD1^G93A mice, p=0.0076 (FIG. 3H legend)): 11 days | effect on survival (hSOD1^G93A mice [4]; small study): did not alter survival | number of days taken to reach end-stage (hSOD1^G93A mice [4]; triheptanoin n=7, mean±SEM, p=0.653 vs control): 174.9 ± 3.5 days | loss of motor neurons between L2 and L5 vs wild type (hSOD1^G93A mice [5]; triheptanoin diet from 35 days (n=4), control diet 37% loss): 21% | motor neuron numbers compared with wild type mice (hSOD1^G93A mice [5]; triheptanoin fed, n=4): not significantly different from wild type mice | protection from reduced expression of 2-oxo-glutarate dehydrogenase (Ogdh) mRNA [6]: not | protection from reduced expression of methylmalonyl mutase (Mut) mRNA [6]: not | protection from reduced expression of pyruvate dehydrogenase (Pdha1) mRNA [6]: protected | protection from reduced expression of succinate dehydrogenase (Sdha) mRNA [6]: protected

Source: patent publication US9833430B2, “Neurodegenerative disorders and methods of treatment and diagnosis thereof” (The University of Queensland, priority 2013, dated 2017)
